Source: patent publication US7186701B2, “Dehydrating agent and method for dehydrating moist article using the agent and dehydrated article obtained by the method” (Kabushiki Kaisha Hayashibara Seibutsu Kagaku Kenkyujo, priority 2001, dated 2007)
Where two headings read alike, the source gives them in different places.

What was measured:
[1] = Dehydration and pulverization of plain yogurt by non-reducing saccharide; design: unit not given here
Procedure: The anhydrous crystalline cyclotetrasaccharide; crystalline cyclotetrasaccharide, monohydrate; and anhydrous amorphous cyclotetrasaccharide were respectively prepared by the methods in Examples A-1, A-2, and A-3. As the crystalline α,α-trehalose, dihydrate, a commercially available “TREHA®” commercialized by Hayashibara Shoji Inc., Okayama, Japan, was used. The anhydrous crystalline α,α-trehalose and the anhydrous amorphous α,α-trehalose used in this experiment were prepared from a commercialized crystalline α,α-trehalose, dihydrate, using the methods disclosed in Examples for Reference 1 and 3 in Japanese Patent Kokai No. 170,221/94. To four parts by weight of a plain yogurt with a moisture content of about 77% was added either of the above saccharides in an amount of 11 to 16 parts by weight. The resultant mixtures were respectively placed in vats, allowed to stand at 25° C. for 24 hours, and macroscopically observed their change on standing. The judgement was conducted in such a manner of sufficiently dehydrating the resulting mixtures to be solidified, subjected to a pulverizer for pulverization, and evaluated as “◯”, when the solids were easily pulverized; “Δ”, when the dehydration of the resulting mixtures was rather insufficient and the pulverization of solids was substantially difficult, though the resulting mixtures were solidified; and “x”, when the dehydration of the resulting mixtures was insufficient and could not be pulverized by a pulverizer.

[2] = Dehydrating action: moisture absorption on standing at controlled relative humidity; assay type: physicochemical; settings: for moisture content (%) by the Karl Fisher method: 25° C.
Source text: Anhydrous crystalline cyclotetrasaccharide; crystalline cyclotetrasaccharide, monohydrate; anhydrous amorphous cyclotetrasaccharide; and crystalline cyclotetrasaccharide, penta- or hexa-hydrate were experimented in detail on their dehydrating actions, particularly, moisture absorption abilities against saccharides and changes on standing. As a control, anhydrous crystalline α,α-trehalose, anhydrous amorphous α,α-trehalose, and crystalline α,α-trehalose, dihydrate, were used as saccharides. The experiments were as follows: […]

[3] = test system: α-isomaltosylglucosaccharide-forming enzyme; experiment: Specificity of transfer acceptor (C9 enzyme); assay type: biochemical, Bacillus globisporus C9 strain; design: key: −: no saccharide-transferred product was detected through transferring reaction to acceptor; ±: a saccharide-transferred product was detected in an amount of less than one percent through transfer reaction to acceptor; +: a saccharide-transferred product was detected in an amount of at least one percent but less than ten percent through transferring reaction to acceptor; ++: a saccharide-transferred product was detected in an amount of at least ten percent through transferring reaction to acceptor; settings: acceptor 1.6%, PINE-DEX #100 donor 4%, one unit/g donor, 30° C., pH 6.0, 24 hours
Procedure: (§1) A variety of saccharides were tested whether they could be used as transferring-acceptors for the α-isomaltosylglucosaccharide-forming enzyme. A solution of D-glucose, D-xylose, L-xylose, D-galactose, D-fructose, D-mannose, D-arabinose, D-fucose, L-sorbose, L-rhamnose, methyl-α-glucopyranoside, methyl-β-glucopyranoside, N-acetyl-glucosamine, sorbitol, α,α-trehalose, isomaltose, isomaltotriose, cellobiose, gentibiose, maltitol, lactose, sucrose, α-cyclodextrin, β-cyclodextrin, or γ-cyclodextrin was prepared. […] The reaction mixtures after the enzymatic reactions were analyzed on gas chromatography (abbreviated as “GLC” hereinafter) for monosaccharides and disaccharides as acceptors, and on HPLC for trisaccharides and higher saccharides as acceptors to confirm whether these saccharides could be used as their transfer acceptors. In the case of performing GLC, the following apparatuses and conditions were used: […] In the case of HPLC analysis, the apparatuses and conditions used were: HPLC apparatus, “CCPD” commercialized by Tosoh Corporation, Tokyo, Japan; column, “ODS-AQ-303” commercialized by YMC Co., Ltd., Tokyo, Japan; eluent, water at a flow rate of 0.5 ml/min; and detection, a differential refractometer.

[4] = test system: α-isomaltosylglucosaccharide-forming enzyme; experiment: Specificity of transfer acceptor (C11 enzyme); assay type: biochemical, Bacillus globisporus C11 strain; design: key: −: no saccharide-transferred product was detected through transferring reaction to acceptor; ±: a saccharide-transferred product was detected in an amount of less than one percent through transfer reaction to acceptor; +: a saccharide-transferred product was detected in an amount of at least one percent but less than ten percent through transferring reaction to acceptor; ++: a saccharide-transferred product was detected in an amount of at least ten percent through transferring reaction to acceptor; settings: acceptor 1.6%, PINE-DEX #100 donor 4%, one unit/g donor, 30° C., pH 6.0, 24 hours
Procedure: as §1

[5] = relative humidity 75%, 0 days after treatment
[6] = relative humidity 75%, 1 day after treatment
[7] = relative humidity 75%, 2 days after treatment
[8] = relative humidity 75%, 3 days after treatment
[9] = relative humidity 75%, 7 days after treatment

## O.O.OC[C@H]1O[C@H](O[C@H]2O[C@H](CO)[C@@H](O)[C@H](O)[C@H]2O)[C@H](O)[C@@H](O)[C@@H]1O [Saccharide G, crystalline α,α-trehalose, dihydrate, reference compound]
[1]
  Water content (before use): 9.7
[2]; [5]
  moisture content (%) by the Karl Fisher method: 9.7%
[2]; [6]
  moisture content (%) by the Karl Fisher method: 9.7%
[2]; [7]
  moisture content (%) by the Karl Fisher method: 9.7%
[2]; [8]
  moisture content (%) by the Karl Fisher method: 9.8%
[2]; [9]
  moisture content (%) by the Karl Fisher method: 9.8%

## O=C[C@H](O)[C@@H](O)[C@H](O[C@@H]1O[C@H](CO)[C@@H](O)[C@H](O)[C@H]1O)[C@H](O)CO [Cellobiose, cellobiose]
[3]
  Product of saccharide transferring reaction, Enzyme of C9 strain: ++ (a saccharide-transferred product was detected in an amount of at least ten percent through transferring reaction to acceptor)
[4]
  Product of saccharide transferring reaction, Enzyme of C11 strain: ++ (a saccharide-transferred product was detected in an amount of at least ten percent through transferring reaction to acceptor)

## crystalline cyclotetrasaccharide, monohydrate [Saccharide B]
[1]
  Water content (before use): 2.7
[2]; relative humidity 60%, 0 days after treatment
  moisture content (%) by the Karl Fisher method: 2.7%
[2]; relative humidity 60%, 1 day after treatment
  moisture content (%) by the Karl Fisher method: 2.7%
[2]; relative humidity 60%, 2 days after treatment
  moisture content (%) by the Karl Fisher method: 2.8%
[2]; relative humidity 60%, 3 days after treatment
  moisture content (%) by the Karl Fisher method: 2.8%
[2]; relative humidity 60%, 7 days after treatment
  moisture content (%) by the Karl Fisher method: 2.9%
[2]; [5]
  moisture content (%) by the Karl Fisher method: 2.7%
[2]; [6]
  moisture content (%) by the Karl Fisher method: 14.0%
[2]; [7]
  moisture content (%) by the Karl Fisher method: 14.0%
[2]; [8]
  moisture content (%) by the Karl Fisher method: 14.1%
[2]; [9]
  moisture content (%) by the Karl Fisher method: 14.1%
[2]; relative humidity of 75%
  moisture absorption level, % of its weight: about 14%

## OC[C@H]1O[C@@H]2OC[C@H]3O[C@H](O[C@@H]4[C@@H](O)[C@@H](OC[C@H]5O[C@H](O[C@H]([C@H]2O)[C@@H]1O)[C@H](O)[C@@H](O)[C@@H]5O)O[C@H](CO)[C@H]4O)[C@H](O)[C@@H](O)[C@@H]3O [Saccharide C, anhydrous amorphous cyclotetrasaccharide]
[1]; listed as C
  Water content (before use): 0.3
[2]; relative humidity 60%, 0 days after treatment, listed as C
  moisture content (%) by the Karl Fisher method: 0.3%
[2]; relative humidity 60%, 1 day after treatment, listed as C
  moisture content (%) by the Karl Fisher method: 13.7%
[2]; relative humidity 60%, 2 days after treatment, listed as C
  moisture content (%) by the Karl Fisher method: 13.8%
[2]; relative humidity 60%, 3 days after treatment, listed as C
  moisture content (%) by the Karl Fisher method: 13.9%
[2]; relative humidity 60%, 7 days after treatment, listed as C
  moisture content (%) by the Karl Fisher method: 14.1%
[2]; relative humidity 75%, 0 days after treatment, listed as C
  moisture content (%) by the Karl Fisher method: 0.3%
[2]; relative humidity 75%, 1 day after treatment, listed as C
  moisture content (%) by the Karl Fisher method: 14.2%
[2]; relative humidity 75%, 2 days after treatment, listed as C
  moisture content (%) by the Karl Fisher method: 13.6%
[2]; relative humidity 75%, 3 days after treatment, listed as C
  moisture content (%) by the Karl Fisher method: 13.7%
[2]; relative humidity 75%, 7 days after treatment, listed as C
  moisture content (%) by the Karl Fisher method: 13.7%
[2]; relative humidity of 60%, listed as anhydrous amorphous cyclotetrasaccharide
  moisture absorption level, % of its weight: about 14%

## OC[C@H]1O[C@@H]2O[C@H]3[C@H](O)[C@@H](O)[C@@H](O[C@H]4[C@H](O)[C@@H](O)[C@@H](O[C@H]5[C@H](O)[C@@H](O)[C@@H](O[C@H]6[C@H](O)[C@@H](O)[C@@H](O[C@H]7[C@H](O)[C@@H](O)[C@@H](O[C@H]8[C@H](O)[C@@H](O)[C@@H](O[C@H]9[C@H](O)[C@@H](O)[C@@H](O[C@H]1[C@H](O)[C@H]2O)O[C@@H]9CO)O[C@@H]8CO)O[C@@H]7CO)O[C@@H]6CO)O[C@@H]5CO)O[C@@H]4CO)O[C@@H]3CO [γ-Cyclodextrin, γ-cyclodextrin]
[3]
  Product of saccharide transferring reaction, Enzyme of C9 strain: −
[4]
  Product of saccharide transferring reaction, Enzyme of C11 strain: −

## OC[C@H]1O[C@H](O[C@H]2O[C@H](CO)[C@@H](O)[C@H](O)[C@H]2O)[C@H](O)[C@@H](O)[C@@H]1O [Saccharide E, anhydrous crystalline α,α-trehalose, reference compound]
[1]; listed as E
  Water content (before use): 0.3
[2]; relative humidity 75%, 0 days after treatment, listed as E
  moisture content (%) by the Karl Fisher method: 0.3%
[2]; relative humidity 75%, 1 day after treatment, listed as E
  moisture content (%) by the Karl Fisher method: 9.7%
[2]; relative humidity 75%, 2 days after treatment, listed as E
  moisture content (%) by the Karl Fisher method: 9.6%
[2]; [8]
  moisture content (%) by the Karl Fisher method: 9.8%
[2]; relative humidity 75%, 7 days after treatment, listed as E
  moisture content (%) by the Karl Fisher method: 9.8%

## O=C(CO)[C@@H](O)[C@H](O)[C@H](O)CO [D-Fructose, D-fructose]
[3]
  Product of saccharide transferring reaction, Enzyme of C9 strain: + (a saccharide-transferred product was detected in an amount of at least one percent but less than ten percent through transferring reaction to acceptor)
[4]
  Product of saccharide transferring reaction, Enzyme of C11 strain: + (a saccharide-transferred product was detected in an amount of at least one percent but less than ten percent through transferring reaction to acceptor)

## O=C[C@@H](O)[C@@H](O)[C@H](O)[C@H](O)CO [D-Mannose, D-mannose]
[3]
  Product of saccharide transferring reaction, Enzyme of C9 strain: −
[4]
  Product of saccharide transferring reaction, Enzyme of C11 strain: −

## OC[C@H]1O[C@H](O[C@H]2O[C@H](CO)[C@@H](O)[C@H](O)[C@H]2O)[C@H](O)[C@@H](O)[C@@H]1O [α,α-Trehalose, α,α-trehalose, reference compound]
[3]
  Product of saccharide transferring reaction, Enzyme of C9 strain: ++ (a saccharide-transferred product was detected in an amount of at least ten percent through transferring reaction to acceptor)
[4]
  Product of saccharide transferring reaction, Enzyme of C11 strain: ++ (a saccharide-transferred product was detected in an amount of at least ten percent through transferring reaction to acceptor)
[2]; relative humidity of 75%
  moisture absorption level, % of its weight: ≤ 10%

## O=C[C@@H](O)[C@H](O)[C@@H](O)CO [L-Xylose, L-xylose]
[3]
  Product of saccharide transferring reaction, Enzyme of C9 strain: ++ (a saccharide-transferred product was detected in an amount of at least ten percent through transferring reaction to acceptor)
[4]
  Product of saccharide transferring reaction, Enzyme of C11 strain: ++ (a saccharide-transferred product was detected in an amount of at least ten percent through transferring reaction to acceptor)

## OC[C@H]1O[C@H](O[C@H]2O[C@H](CO)[C@@H](O)[C@H](O)[C@H]2O)[C@H](O)[C@@H](O)[C@@H]1O [Saccharide F, anhydrous amorphous α,α-trehalose, reference compound]
[1]; listed as F
  Water content (before use): 0.8
[2]; relative humidity 75%, 0 days after treatment, listed as F
  moisture content (%) by the Karl Fisher method: 0.8%
[2]; relative humidity 75%, 1 day after treatment, listed as F
  moisture content (%) by the Karl Fisher method: 9.8%
[2]; relative humidity 75%, 2 days after treatment, listed as F
  moisture content (%) by the Karl Fisher method: 9.7%
[2]; relative humidity 75%, 7 days after treatment, listed as F
  moisture content (%) by the Karl Fisher method: 9.7%

## C[C@@H](O)[C@H](O)[C@H](O)[C@@H](O)C=O [D-Fucose, D-fucose]
[3]
  Product of saccharide transferring reaction, Enzyme of C9 strain: + (a saccharide-transferred product was detected in an amount of at least one percent but less than ten percent through transferring reaction to acceptor)
[4]
  Product of saccharide transferring reaction, Enzyme of C11 strain: + (a saccharide-transferred product was detected in an amount of at least one percent but less than ten percent through transferring reaction to acceptor)
